We go through 18 compounds from ChEMBL document CHEMBL1135036, “Synthesis and antibacterial evaluation of novel 2-[N-Imidoylpyrrolidinyl] carbapenems” (Bioorg Med Chem Lett, 2002).

Series [1] is described as follows: Tested for urinary recovery in mice after subcutaneous administration of 20 mg/Kg. The format is ADME, organism-based. Particulars: mouse, urine, sc, read-out: Recovery.
Series [2] deals with T1, Dipeptidase 1 (Homo sapiens) (UniProt P16444).
T1 sequence (whole entry): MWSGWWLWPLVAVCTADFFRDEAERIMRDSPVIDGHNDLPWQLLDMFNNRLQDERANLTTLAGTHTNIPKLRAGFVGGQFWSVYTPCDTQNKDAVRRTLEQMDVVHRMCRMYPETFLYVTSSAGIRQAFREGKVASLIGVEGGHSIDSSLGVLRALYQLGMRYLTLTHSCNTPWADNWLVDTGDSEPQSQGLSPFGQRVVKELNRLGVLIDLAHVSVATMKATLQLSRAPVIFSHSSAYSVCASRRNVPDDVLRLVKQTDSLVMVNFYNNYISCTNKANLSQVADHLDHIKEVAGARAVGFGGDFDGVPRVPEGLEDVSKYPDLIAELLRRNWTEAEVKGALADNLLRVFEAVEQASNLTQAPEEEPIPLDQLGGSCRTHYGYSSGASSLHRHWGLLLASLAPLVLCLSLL
The series can be described thus: Compound stability against human renal DHP-1 relative to imipenem (IMP). The format is functional.

Series [3] addresses T2, Dipeptidase 1 (Sus scrofa) (UniProt P22412).
T2 sequence (whole entry): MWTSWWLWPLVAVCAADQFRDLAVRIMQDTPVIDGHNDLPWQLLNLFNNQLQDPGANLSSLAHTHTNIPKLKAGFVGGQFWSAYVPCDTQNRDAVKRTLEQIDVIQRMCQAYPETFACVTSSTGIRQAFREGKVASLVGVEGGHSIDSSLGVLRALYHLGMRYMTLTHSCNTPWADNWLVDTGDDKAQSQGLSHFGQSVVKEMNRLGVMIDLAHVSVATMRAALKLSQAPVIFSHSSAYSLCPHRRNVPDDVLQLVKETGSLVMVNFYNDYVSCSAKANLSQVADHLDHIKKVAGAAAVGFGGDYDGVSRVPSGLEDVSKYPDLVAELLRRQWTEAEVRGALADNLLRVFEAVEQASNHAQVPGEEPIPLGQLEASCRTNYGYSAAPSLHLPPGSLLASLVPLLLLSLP
Put plainly: Tested for stability of compound to swine renal DHP-1 relative to imipenem (IMP). The format is functional.

For another series, the system named is Escherichia coli. Put plainly: In vitro antibacterial activity against Escherichia coli NIHJ JC-2. The format is functional.
A further series has as its system Proteus vulgaris. Put plainly: In vitro antibacterial activity against Proteus vulgaris IAM 1025. The format is functional.
For series [4], the system named is Pseudomonas aeruginosa. Put plainly: In vitro antibacterial activity against Ps. auruginosa 26. The format is functional.
Series [5] relates to Staphylococcus aureus. The series can be described thus: In vitro antibacterial activity against Staphylococcus aureus 209P JC-1. The format is functional.
Series [6] has as its system Staphylococcus aureus. Put plainly: In vitro antibacterial activity against Staphylococcus aureus 3004 Methicillin-resistant Staphylococcus aureus. The format is functional.
The subject of series [7] is Pseudomonas aeruginosa. Put plainly: Tested in vitro for antibacterial activity against Ps. aeruginosa 26. The format is functional.
Series [8] deals with T1, Dipeptidase 1 (Homo sapiens). Put plainly: Tested for stability of compound to human renal DHP-1 relative to imipenem (IMP). The format is functional.

≈ marks a conversion by molar mass, not a printed value.

As to `C[C@@H](O)[C@H]1C(=O)N2C(C(=O)O)=C([C@@H]3CCN(C=N)C3)C[C@H]12`, in [1], the dose excreted turned out to be 41%. Further, the figures for the Stability in series [2] and in [3] were 39% and 15%, respectively. In addition, the MIC (usually the lowest concentration that inhibits growth of the organism) is 0.1 µg/mL (≈ 0.341 µM) with Escherichia coli; 1.56 µg/mL (≈ 5.32 µM) in the series with Proteus vulgaris; 0.2 µg/mL (≈ 0.682 µM) in the series on Pseudomonas aeruginosa [4]; under 0.025 µg/mL in the series on Staphylococcus aureus [5]; 25 µg/mL (≈ 85.2 µM) in the series with Staphylococcus aureus [6].
For `C[C@@H](O)[C@H]1C(=O)N2C(C(=O)O)=C(SCCNC=N)C[C@H]12` [IMIPENEM ANHYDROUS], the Stability in [2] and in series [3] was 100% in each case. The MIC against Escherichia coli is 0.78 µg/mL (≈ 2.61 µM); against Proteus vulgaris, 3.1 µg/mL (≈ 10.4 µM); in the series on Pseudomonas aeruginosa [4], 0.78 µg/mL (≈ 2.61 µM); against Staphylococcus aureus [5] it was under 0.025 µg/mL; with Staphylococcus aureus [6] it was 100 µg/mL (≈ 334 µM).
For `C/C(=C\[C@@]1(C)CCCN1)C1=C(C(=O)O)N2C(=O)[C@H]([C@@H](C)O)[C@H]2C1`, in [1], the dose excreted was 61%. Also, the Stability came to 45% in [2] and 4.3% in series [3]. The MIC against Escherichia coli is 0.39 µg/mL (≈ 1.22 µM); with Proteus vulgaris, 1.56 µg/mL (≈ 4.87 µM); in the series on Pseudomonas aeruginosa [4] it was 3.13 µg/mL (≈ 9.77 µM); against Staphylococcus aureus [5] it was under 0.025 µg/mL; against Staphylococcus aureus [6], 50 µg/mL (≈ 156 µM).
For the compound `C[C@@H](O)[C@H]1C(=O)N2C(C(=O)O)=C(C3CCNCC3)C[C@H]12`, the dose excreted in [1] was found to be 43%. Moreover, the Stability in series [3] was 18%. Also, the MIC with Escherichia coli is 1.56 µg/mL (≈ 5.56 µM); against Proteus vulgaris, 12.5 µg/mL (≈ 44.6 µM); with Pseudomonas aeruginosa [7], 0.78 µg/mL (≈ 2.78 µM); against Staphylococcus aureus [5], 0.05 µg/mL (≈ 0.178 µM); in the series with Staphylococcus aureus [6], over 100 µg/mL.
Consider `C[C@@H](O)[C@H]1C(=O)N2C(C(=O)O)=C(C3CNC3)C[C@H]12`, for which, in [1], the dose excreted turned out to be 45%. The same compound yielded a Stability in series [3] of 2%. In addition, the MIC in the series on Escherichia coli worked out at 1.56 µg/mL (≈ 6.18 µM); in the series on Proteus vulgaris it was 3.13 µg/mL (≈ 12.4 µM); against Pseudomonas aeruginosa [4], 1.56 µg/mL (≈ 6.18 µM); in the series with Staphylococcus aureus [5] it was 0.05 µg/mL (≈ 0.198 µM); against Staphylococcus aureus [6] it was 100 µg/mL (≈ 396 µM).
Take `C[C@@H](O)[C@H]1C(=O)N2C(C(=O)O)=C(C3CCCNC3)C[C@H]12` (stereo partly drawn): the dose excreted in series [1] came to 59%. This compound yielded a Stability in series [8] of 4.4%. In addition, the MIC was 0.39 µg/mL (≈ 1.39 µM) in the series on Escherichia coli; 25 µg/mL (≈ 89.2 µM) in the series on Proteus vulgaris; 1.56 µg/mL (≈ 5.56 µM) with Pseudomonas aeruginosa [4]; under 0.025 µg/mL against Staphylococcus aureus [5]; 50 µg/mL (≈ 178 µM) in the series with Staphylococcus aureus [6].
In the case of `C[C@@H](O)[C@H]1C(=O)N2C(C(=O)O)=C(SCCN=CN)C[C@H]12` [IMIPENEM ANHYDROUS], the dose excreted in series [1] is 29%.
For the compound `C[C@@H](O)[C@H]1C(=O)N2C(C(=O)O)=C([C@@H]3CCN(C(=N)CO)C3)C[C@H]12`, the dose excreted in series [1] was found to be 52%. The Stability in [3] was 13%. Moreover, the MIC is 0.39 µg/mL (≈ 1.21 µM) against Escherichia coli; 3.13 µg/mL (≈ 9.68 µM) against Proteus vulgaris; 0.78 µg/mL (≈ 2.41 µM) with Pseudomonas aeruginosa [4]; under 0.025 µg/mL with Staphylococcus aureus [5]; 25 µg/mL (≈ 77.3 µM) in the series on Staphylococcus aureus [6].
On to `C[C@@H](O)[C@H]1C(=O)N2C(C(=O)O)=C(C3CCNC3)C[C@H]12` (stereo partly drawn), for which, in [1], the dose excreted amounted to 42%. For the same compound, the Stability in [2] stood at 58%; in [3] it was 13%. Also, the MIC was 0.39 µg/mL (≈ 1.46 µM) in the series with Escherichia coli; 12.5 µg/mL (≈ 46.9 µM) in the series on Proteus vulgaris; 0.78 µg/mL (≈ 2.93 µM) in the series on Pseudomonas aeruginosa [4]; under 0.025 µg/mL with Staphylococcus aureus [5]; 100 µg/mL (≈ 376 µM) with Staphylococcus aureus [6].
Consider `C[C@@H](O)[C@H]1C(=O)N2C(C(=O)O)=C([C@H]3CCNC3)C[C@H]12`, for which the dose excreted in series [1] is 46%. The Stability turned out to be 78% in series [2] and 16% in [3]. Further, the MIC is 0.39 µg/mL (≈ 1.46 µM) against Escherichia coli; 6.25 µg/mL (≈ 23.5 µM) against Proteus vulgaris; 0.78 µg/mL (≈ 2.93 µM) with Pseudomonas aeruginosa [4]; under 0.025 µg/mL with Staphylococcus aureus [5]; 100 µg/mL (≈ 376 µM) against Staphylococcus aureus [6].
With `C[C@@H](O)[C@H]1C(=O)N2C(C(=O)O)=C([C@@H]3CCNC3)C[C@H]12`, the dose excreted in series [1] turned out to be 37%. The Stability in [2] was 48%; in series [3], 8.8%. For the same compound, the MIC against Escherichia coli is 0.2 µg/mL (≈ 0.751 µM); in the series with Proteus vulgaris, 6.25 µg/mL (≈ 23.5 µM); against Pseudomonas aeruginosa [4] it was 0.39 µg/mL (≈ 1.46 µM); against Staphylococcus aureus [5], under 0.025 µg/mL; against Staphylococcus aureus [6] it was 50 µg/mL (≈ 188 µM).
For the compound `C[C@@H](O)[C@H]1C(=O)N2C(C(=O)O)=C([C@@H]3CCN(C(=N)CNC(N)=O)C3)C[C@H]12`, the dose excreted in [1] worked out at 47%. This compound also gave a Stability in [2] of 20%. In addition, the MIC with Escherichia coli is 0.2 µg/mL (≈ 0.547 µM); with Proteus vulgaris, 3.13 µg/mL (≈ 8.57 µM); in the series on Pseudomonas aeruginosa [4], 0.39 µg/mL (≈ 1.07 µM); in the series on Staphylococcus aureus [5], under 0.025 µg/mL; in the series on Staphylococcus aureus [6] it was 25 µg/mL (≈ 68.4 µM).
For `CC(=N)N1CC[C@@H](C2=C(C(=O)O)N3C(=O)[C@H]([C@@H](C)O)[C@H]3C2)C1`, in [1], the dose excreted is 44%. Also, the Stability in series [2] was 34%; in series [3] it was 8.4%. Also, the MIC against Escherichia coli is 0.2 µg/mL (≈ 0.651 µM); in the series on Proteus vulgaris, 1.56 µg/mL (≈ 5.08 µM); in the series with Pseudomonas aeruginosa [4], 0.78 µg/mL (≈ 2.54 µM); in the series on Staphylococcus aureus [5], under 0.025 µg/mL; in the series with Staphylococcus aureus [6] it was 6.25 µg/mL (≈ 20.3 µM).
Consider `C[C@@H](O)[C@H]1C(=O)N2C(C(=O)O)=C([C@@H]3CCN(C(=N)COC(N)=O)C3)C[C@H]12`, for which the dose excreted in series [1] was found to be 42%. In series [2], this compound returned a Stability of 13%. For the same compound, the MIC in the series with Escherichia coli was 0.1 µg/mL (≈ 0.273 µM); against Proteus vulgaris, 1.56 µg/mL (≈ 4.26 µM); against Pseudomonas aeruginosa [4], 0.78 µg/mL (≈ 2.13 µM); against Staphylococcus aureus [5], under 0.025 µg/mL; with Staphylococcus aureus [6] it was 6.25 µg/mL (≈ 17.1 µM).
Turning to `C[C@@H](O)[C@H]1C(=O)N2C(C(=O)O)=C([C@@H]3CCN(C4=NCCC4)C3)C[C@H]12`, the dose excreted in series [1] turned out to be 50%. Also, the results for the Stability in series [2] and in series [3] were 28% and 8.4%, respectively. Moreover, the minimum inhibitory concentration (MIC) was 0.2 µg/mL (≈ 0.6 µM) with Escherichia coli; 1.56 µg/mL (≈ 4.68 µM) against Proteus vulgaris; 0.39 µg/mL (≈ 1.17 µM) with Pseudomonas aeruginosa [4]; under 0.025 µg/mL against Staphylococcus aureus [5]; 12.5 µg/mL (≈ 37.5 µM) in the series on Staphylococcus aureus [6].
As to `C/N=C/N1CC[C@@H](C2=C(C(=O)O)N3C(=O)[C@H]([C@@H](C)O)[C@H]3C2)C1`, the dose excreted in series [1] is 48%. Also, the Stability in series [2] came out at 91%; in series [3], 7.8%. Moreover, the MIC was 0.2 µg/mL (≈ 0.651 µM) in the series with Escherichia coli; 0.78 µg/mL (≈ 2.54 µM) against Proteus vulgaris; 0.39 µg/mL (≈ 1.27 µM) in the series on Pseudomonas aeruginosa [4]; under 0.025 µg/mL against Staphylococcus aureus [5]; 3.13 µg/mL (≈ 10.2 µM) against Staphylococcus aureus [6].
`C[C@@H](O)[C@H]1C(=O)N2C(C(=O)O)=C([C@@H]3CCN(C(=N)CC(N)=O)C3)C[C@H]12`: the dose excreted in series [1] was determined as 43%. Also, the Stability in [2] is 14%; in [3], 13%. Besides, the MIC is 0.39 µg/mL (≈ 1.11 µM) against Escherichia coli; 1.56 µg/mL (≈ 4.45 µM) against Proteus vulgaris; 0.39 µg/mL (≈ 1.11 µM) in the series on Pseudomonas aeruginosa [4]; under 0.025 µg/mL against Staphylococcus aureus [5]; 6.25 µg/mL (≈ 17.8 µM) in the series on Staphylococcus aureus [6].
On to `CC(=N)N1CC[C@H](SC2=C(C(=O)O)N3C(=O)[C@H]([C@@H](C)O)[C@H]3C2)C1` [PANIPENEM], for which, in [1], the dose excreted stood at 25%. Moreover, the MIC with Escherichia coli stood at 0.2 µg/mL (≈ 0.589 µM); in the series with Proteus vulgaris, 1.56 µg/mL (≈ 4.6 µM); against Pseudomonas aeruginosa [4] it was 0.39 µg/mL (≈ 1.15 µM); against Staphylococcus aureus [5], 0.025 µg/mL (≈ 0.0737 µM); in the series with Staphylococcus aureus [6], 50 µg/mL (≈ 147 µM).
